Key:
[1] = system: LPS-induced TNF-α release from human peripheral blood mononuclear cells (PBMC); test: Inhibition of LPS-induced TNF-α release from human PBMC; type: cell-based; settings: LPS 0.4 ng/mL, 6 h, presence or absence of ICI-118551 not given
Text: Inhibition of Lipopolysaccharide (LPS)-Induced Tumour Necrosis Factor Alpha (TNF-α) Release from Human Peripheral Blood Mononuclear Cells (PBMC)
Human whole blood was drawn from donors and cell purification initiated within two hours. Peripheral blood mononuclear cells (PBMC) were purified using a standard Ficoll gradient purification technique and aliquoted at a concentration of 100,000 cells/well in 96 well plates. Beta-2 adrenoreceptor agonists are also anti-inflammatory for some immune cells expressing the receptor and in this assay they can inhibit tumor necrosis factor-alpha (TNF-α) production. Therefore PBMC were pre-incubated for 30 min in the presence of the beta-2 adrenoreceptor antagonist ICI-118551 [3-(isopropylamino)-1-[(7-methyl-4-indanyl)oxy]butan-2-ol] (10 μM) to determine the PDE4 directed activity of test compounds, and in the absence of ICI-118551 for the combined PDE4 and beta-2 receptor directed activity. Test compounds were dissolved in DMSO and diluted in buffer (final DMSO concentration of 0.1% v/v) and were then added to the cell suspensions and pre-incubated for a further 1 h at 37° C. LPS solution was then added (0.4 ng/mL) and the cells incubated for a further 6 h. At the end of the incubation period the cell supernatants were collected and TNF-α was measured using a Procarta Cytokine Assay Kit (Affymetrix, Santa Clara, Calif.) according to the manufacturers' instructions. Data were analyzed using MiraiBio Masterplex QT v4.0 software (MasterPlex Version 1.0.1.18 Copyright 2008, Hitachi Software Engineering Co., Ltd) and used to extrapolate Mean Fluorescence Intensity (MFI) into concentrations of TNF-α and mean values from replicate wells were determined. Inhibition curves were plotted using a nonlinear curve fit employing a single-site binding model to determine the IC50 value for each test compound in the presence or absence of ICI-118551 using GraphPad Prism 5 for Windows, version 5.02 (GraphPad Software, San Diego Calif.).
EC50 determinations for the compounds presented above are seen in the fourth column of Table 1 (PBMC TNF EC50).

Human recombinant PDE4B2 = molecular target: T1, Human recombinant PDE4B2 (Homo sapiens, UniProt Q07343); test: Inhibition of PDE4B4 enzyme activity (PDE Glo Assay); type: biochemical; settings: human recombinant PDE4B2, 50 nM cAMP; read-out: PDE4 IC50
T1 construct: purchased BPS Bioscience
T1 sequence (Q07343 1-564 isoform Q07343-2): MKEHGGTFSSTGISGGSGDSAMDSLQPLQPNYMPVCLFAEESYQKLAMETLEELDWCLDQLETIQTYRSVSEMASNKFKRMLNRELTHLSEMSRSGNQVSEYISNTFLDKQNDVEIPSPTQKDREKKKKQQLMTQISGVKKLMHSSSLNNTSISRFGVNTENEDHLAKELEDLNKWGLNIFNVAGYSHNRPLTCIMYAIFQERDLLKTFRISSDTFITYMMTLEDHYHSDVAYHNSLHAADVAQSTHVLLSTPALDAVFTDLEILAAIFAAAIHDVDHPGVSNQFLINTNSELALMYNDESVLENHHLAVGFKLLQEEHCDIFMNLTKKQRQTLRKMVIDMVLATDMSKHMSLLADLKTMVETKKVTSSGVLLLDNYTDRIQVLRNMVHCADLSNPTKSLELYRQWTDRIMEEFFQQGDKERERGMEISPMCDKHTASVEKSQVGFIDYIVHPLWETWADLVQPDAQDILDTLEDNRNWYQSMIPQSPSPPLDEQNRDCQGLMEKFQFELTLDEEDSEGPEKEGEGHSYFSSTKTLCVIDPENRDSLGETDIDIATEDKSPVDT
Description: Biological Examples Inhibition of PDE4B4 Enzyme Activity
The inhibitory activity of test compounds were determined using the PDE Glo Assay (Promega, V1361). The PDE-Glo Reaction Buffer was prepared (1 mL 5× buffer+4 mL water) and 150 nM solution of test compound dissolved in the Reaction Buffer, followed by 1:3 serial dilutions into Reaction Buffer. […] Human recombinant PDE4B2 (BPS Bioscience) was added to test compound in Reaction Buffer at a concentration of 0.12 nM per reaction. The enzyme and test compound were pre-incubated together at rt for 10 min. 50 nM of the enzyme substrate cAMP was then added to initiate the enzyme reaction, with the reaction terminated after one hour. Termination Buffer (1 mL 5× termination buffer+3.9 mL water+100 μL of 100 mM IBMX (ICN Chemicals, in DMSO)), was added to each reaction well to terminate the reaction. Detection Buffer (1 mL 5×PDE-Glo Detection buffer+3.96 mL water+40 μL PKA (supplied in kit)) was added to the cAMP-enzyme-test compound mix and this secondary reaction proceeded for 20 minutes at rt. An equal volume of Kinase Glo Reagent was then added to the reaction mixture and after 10 min luminescence was measured using a luminometer (EnVision, 0.1 sec read for luminescence). Luminescence values were […] related to levels of cAMP in the reaction mixture. Data were plotted as relative light units (RLU) versus test compound concentration and the IC50 determined using GraphPad Prism 5.0, using a nonlinear curve fit in a single-site binding model.
IC50 determinations for the compounds presented above are seen in the first column of Table 1 (PDE4IC50).

[2] = molecular target: T2, human recombinant beta-2 adrenoreceptors (Homo sapiens, UniProt P07550); test: Beta-2 adrenoceptor binding assay ([3H](−)CGP-12177 displacement); settings: CHO cells expressing human beta-2 adrenoreceptors, [3H](−)CGP-12177 0.3 nM, 120 min
T2 construct: expressed in transfected cells; host or cells: CHO cells
T2 sequence (P07550 whole entry): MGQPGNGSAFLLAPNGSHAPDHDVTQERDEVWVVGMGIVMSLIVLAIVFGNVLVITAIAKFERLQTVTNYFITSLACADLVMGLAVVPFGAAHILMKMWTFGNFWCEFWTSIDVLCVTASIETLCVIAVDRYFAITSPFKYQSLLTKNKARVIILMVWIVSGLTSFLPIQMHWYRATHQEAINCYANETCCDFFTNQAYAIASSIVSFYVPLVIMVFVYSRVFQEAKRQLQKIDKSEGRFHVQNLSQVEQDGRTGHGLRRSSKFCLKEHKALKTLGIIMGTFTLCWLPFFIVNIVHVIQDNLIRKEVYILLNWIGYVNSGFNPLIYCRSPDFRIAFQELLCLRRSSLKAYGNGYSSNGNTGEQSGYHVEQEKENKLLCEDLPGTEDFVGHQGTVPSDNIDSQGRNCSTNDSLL
Description: Beta-2 Adrenoceptor Binding Assay
Test compounds were incubated for 120 min with Chinese hamster oocyte (CHO) cells expressing the human recombinant beta-2 adrenoreceptors. Binding of test compounds to the beta-2 adrenoreceptors was determined by measuring the displacement of the radiolabeled ligand [^3H](−)CGP-12177 (0.3 nM) from the receptor measured by a scintillation counting. Concentration response curves were generated for test compounds and the IC50 (molar concentration of the compound which produced 50% inhibition for the maximal response for that compound) was determined. These assays were performed using a protocol based on the original description of the assay by Joseph et al., (2004) Naun.-Sch. Arch. Pharm.; 369:525-532.
IC50 determinations for the compounds presented above are seen in the second column of Table 1 (Beta 2 IC50).

[3] = molecular target: T2, human recombinant beta-2 adrenoreceptors; test: Functional agonism of human recombinant beta-2 adrenoreceptors expressed in CHO cells (cAMP HTRF); type: cell-based; settings: CHO cells expressing human beta-2 adrenoreceptors, cAMP elevation, 30 min
Description: Functional Agonism of Human Recombinant Beta-2 Adrenoreceptors Expressed in Chinese Hamster Oocytes (CHO)
Test compounds were incubated for 30 min with CHO cells expressing the human recombinant beta-2 adrenoreceptors. Agonism of the receptor was measured by the elevation of intracellular cyclic-AMP over control levels detected using a homogeneous time resolved fluorescence (HTRF) format. Compounds were determined to be “full” or “partial” agonists based on the maximum level of cAMP accumulated compared to the control compound isoproterenol which is a full agonist in this assay system. Concentration response curves were generated for test compounds and the EC50 (molar concentration of the agonist which produced 50% of the maximal response for that compound) was determined. These assays were performed using a protocol based on the original description of the assay by Baker, J. G. (2005) Brit. J. Pharmacol.; 144:317-322.
EC50 determinations for the compounds presented above are seen in the third column of Table 1 (Beta 2 EC50).

| Compound | EC50 [1] [nM] | IC50 (Human recombinant PDE4B2) [nM] | IC50 [2] [nM] | EC50 [3] [nM] |
| --- | --- | --- | --- | --- |
| COc1cccc(Nc2c(C(N)=O)cnc3c(C)cc(S(=O)(=O)CCCCCCCCCCCNC[C@H](O)c4cc(O)cc5c4OCC(=O)N5)cc23)c1 [Example 46, (R)-6-((11-((2-hydroxy-2-(6-hydroxy-3-oxo-3,4-dihydro-2H-benzo[b][1,4]oxazin-8-yl)ethyl)amino)undecyl)sulfonyl)-4-((3-methoxyphenyl)amino)-8-methylquinoline-3-carboxamide] | < 100 | < 100 | < 100 | < 300 |
| COc1cccc(Nc2c(C(N)=O)cnc3c(C)cc(S(=O)(=O)c4cccc(C(=O)NCCCCCCNC[C@H](O)c5ccc(O)c6[nH]c(=O)ccc56)c4)cc23)c1 [Example 2, (R)-6-[[3-[[6-[[2-Hydroxy-2-(8-hydroxy-2-oxo-1,2-dihydroquinolin-5-yl)ethyl]amino]hexyl]carbamoyl]phenyl]sulfonyl]-4-((3-methoxyphenyl)amino]-8-methylquinoline-3-carboxamide] | < 100 | < 100 | < 100 | < 100 |
| COc1cccc(Nc2c(C(N)=O)cnc3c(C)cc(S(=O)(=O)c4cccc(C(=O)Nc5ccc(C#CCCCCNC[C@H](O)c6ccc(O)c7[nH]c(=O)ccc67)cc5)c4)cc23)c1 [Example 7, (R)-6-((3-((4-(6-((2-hydroxy-2-(8-hydroxy-2-oxo-1,2-dihydroquinolin-5-yl)ethyl)amino)hex-1-yn-1-yl)phenyl)carbamoyl)phenyl)sulfonyl)-4-((3-methoxyphenyl)amino)-8-methylquinoline-3-carboxamide] | < 100 | < 100 | < 100 | < 100 |
| COc1cccc(Nc2c(C(N)=O)cnc3c(C)cc(S(=O)(=O)c4cccc(CN(C)C(=O)c5cccc(CC(C)(C)NC[C@H](O)c6ccc(O)c7[nH]c(=O)ccc67)c5)c4)cc23)c1 [Example 19, (R)-6-((3-((3-(2-((2-hydroxy-2-(8-hydroxy-2-oxo-1,2-dihydroquinolin-5-yl)ethyl)amino)-2-methylpropyl)-N-methylbenzamido)methyl)phenyl)sulfonyl)-4-((3-methoxyphenyl)amino)-8-methylquinoline-3-carboxamide] | < 100 | < 100 | < 100 | < 100 |
| COc1cccc(Nc2c(C(N)=O)cnc3c(C)cc(S(=O)(=O)c4cccc(C(=O)NCCCCCCNC[C@H](O)c5ccc(O)c(CO)c5)c4)cc23)c1 [Example 41, (R)-6-[[3-[[6-[[2-Hydroxy-2-[4-hydroxy-3-(hydroxymethyl)phenyl]ethyl]amino]hexyl]carbamoyl]phenyl]sulfonyl]-4-[(3-methoxyphenyl)amino]-8-methylquinoline-3-carboxamide] | < 100 | < 100 | < 100 | < 100 |
| COc1cccc(Nc2c(C(N)=O)cnc3c(C)cc(S(=O)(=O)c4cccc(C(=O)NCCCCCCNC[C@H](O)c5cc(O)cc6c5OCC(=O)N6)c4)cc23)c1 [Example 23, (R)-6-((3-((6-((2-hydroxy-2-(6-hydroxy-3-oxo-3,4-dihydro-2H-benzo[b][1,4]oxazin-8-yl)ethyl)amino)hexyl)carbamoyl)phenyl)sulfonyl)-4-((3-methoxyphenyl)amino)-8-methylquinoline-3-carboxamide] | < 100 | < 100 | < 100 | < 100 |
| COc1cccc(Nc2c(C(N)=O)cnc3c(C)cc(S(=O)(=O)c4cccc(C(=O)Nc5ccc(CCNC[C@H](O)c6ccc(O)c7[nH]c(=O)ccc67)cc5)c4)cc23)c1 [Example 12, (R)-6-[[3-[[4-[2-[[2-Hydroxy-2-(8-hydroxy-2-oxo-1,2-dihydroquinolin-5-yl)ethyl]amino]ethyl]phenyl]carbamoyl]phenyl]sulfonyl]-4-[(3-methoxyphenyl)amino]-8-methylquinoline-3-carboxamide] | < 100 | < 100 | < 100 | < 100 |
| COc1cccc(Nc2c(C(N)=O)cnc3c(C)cc(S(=O)(=O)c4cccc(C(=O)NCCCCCCNC[C@H](O)c5ccc(O)c(NS(C)(=O)=O)c5)c4)cc23)c1 [Example 43, (R)-6-[[3-[[6-[[2-Hydroxy-2-[4-hydroxy-3-(methylsulfonamido)phenyl]ethyl]amino]hexyl]carbamoyl]phenyl]sulfonyl]-4-[(3-methoxyphenyl)amino]-8-methylquinoline-3-carboxamide] | < 100 | < 100 | < 100 | < 100 |
| COc1cccc(Nc2c(C(N)=O)cnc3c(C)cc(S(=O)(=O)c4cccc(C(=O)Nc5cccc(C#CCCCNC[C@H](O)c6ccc(O)c7[nH]c(=O)ccc67)c5)c4)cc23)c1 [Example 9, (R)-6-((3-((3-(5-((2-hydroxy-2-(8-hydroxy-2-oxo-1,2-dihydroquinolin-5-yl)ethyl)amino)pent-1-yn-1-yl)phenyl)carbamoyl)phenyl)sulfonyl)-4-((3-methoxyphenyl)amino)-8-methylquinoline-3-carboxamide] | < 100 | < 100 | < 100 | < 100 |
| COc1cccc(Nc2c(C(N)=O)cnc3c(C)cc(S(=O)(=O)c4cccc(C(=O)N5CCC(OCCCCCCNC[C@H](O)c6ccc(O)c7[nH]c(=O)ccc67)CC5)c4)cc23)c1 [Example 15, (R)-6-((3-(4-((6-((2-hydroxy-2-(8-hydroxy-2-oxo-1,2-dihydroquinolin-5-yl)ethyl)amino)hexyl)oxy)piperidine-1-carbonyl)phenyl)sulfonyl)-4-((3-methoxyphenyl)amino)-8-methylquinoline-3-carboxamide] | < 100 | < 100 | < 100 | < 100 |
| COc1cccc(Nc2c(C(N)=O)cnc3c(C)cc(S(=O)(=O)c4cccc(C(=O)N5CCN(C(=O)c6cccc(CC(C)(C)NC[C@H](O)c7ccc(O)c8[nH]c(=O)ccc78)c6)CC5)c4)cc23)c1 [Example 18, (R)-6-((3-(4-(3-(2-((2-hydroxy-2-(8-hydroxy-2-oxo-1,2-dihydroquinolin-5-yl)ethyl)amino)-2-methylpropyl)benzoyl)piperazine-1-carbonyl)phenyl)sulfonyl)-4-((3-methoxyphenyl)amino)-8-methylquinoline-3-carboxamide] | < 100 | < 100 | < 100 | < 100 |

Reference: patent US8394829B2, “Bi-functional quinoline analogs” (Gilead Sciences, Inc., priority 2010, dated 2013)
